Reference: paper PMC6631119, “Nasal Administration and Plasma Pharmacokinetics of Parathyroid Hormone Peptide PTH 1-34 for the Treatment of Osteoporosis” (Pharmaceutics, 2019)
Like-named read-outs stand apart in the source and are kept apart here.

Test: Ovine plasma pharmacokinetics of PTH 1-34 (four-way randomised cross-over, ELISA)
Assay type: in vivo
Conditions: sheep; for half-life: read-out: t1/2 (mean); for bioavailability: relative to intravenous injection, read-out: Fab
Experimental: Research was conducted in accordance with the requirements of the Animals (Scientific Procedures) Act 1986 (ASPA) under Procedural Project Licence (PPL) number 40/3552 (Protocol 19b/1), between 26 April 2016 and 24 May 2016, at the University of Nottingham, Nottingham, UK (Procedural Establishment Licence (PEL) number PCD 40/2406). The overarching protocol (as detailed in the PPL) was subject to full review by the Animal Welfare and Ethical Review Board (AWERB), and the study-specific protocol received a more localised review by the Named Animal Care and Welfare Officer (NACWO) and Named Veterinary Surgeon (NVS). This research governance is compliant with recommended ethical review processes. In view of the clinical data obtained in the present study, the pharmacokinetics of the Solutol® HS15-based formulation of PTH 1-34 were further investigated in sheep. The sheep study replicated the clinical trial in that it tested the nasal solution formulation of PTH 1-34 as well as a subcutaneous injection, but also evaluated pharmacokinetics of PTH 1-34 following intravenous injection and an intranasal PTH1-34 dry powder formulation.
The study was conducted according to a four-way randomised cross-over study in four (Mule crossbred) female sheep (obtained from a reputable commercial supplier). The sheep were group housed in a heat and ventilation air conditioned (HVAC) facility for the duration of the study, and were uniquely identified by a combination of ear tag and electronic transponder. On arrival, the animals were also randomly assigned a unique identifier by the facilities Research Animal Facility Management system (LabTracks, Locus Technology Inc., Manchester, MD, USA) and an abbreviated study number (1, 2, 3 and 4). To aid identification during the study, the fleece of each animal was marked with the abbreviated study number by spraying with a commercial stockmarker (dye). The animals were acclimatised for 17 days prior to initiation of treatments. The animals were subject to a health inspection by the NVS prior to and after use in the study, and were monitored during the study by the PPL holder and facility personnel supported by the NACWO, NVS and University of Nottingham personnel. Animals were weighed weekly during the study (Supplementary Materials: Section S3).
Administration of the PTH 1-34 was either as an intranasal liquid, intranasal dry powder, subcutaneous injection or intravenous injection. The treatments were randomised according to a Latin Square design using an online randomisation programme (Experimental Design Generator and Randomiser (Edgar) accessed from: http://www.edgarweb.org.uk/) with a minimum of a two day washout period between study legs. Immediately prior to dosing, the four sheep were sedated by an intravenous injection of ketamine hydrochloride (100 mg/mL solution administered at 2.25 mg/kg). This provided approximately 3 min sedation, during which period the sheep were dosed.
The formulations were prepared at Critical Pharmaceuticals’ Laboratories and transported, refrigerated, to the study facility. The intranasal liquid was administered via the right nostril using a LMA™ MAD110 Nasal™ Intranasal mucosal atomization device (MAD110) (Wolfe-Tory Medical, Inc., Salt Lake City, UT, USA) customised for use in sheep (to allow circumvention of the nostril and delivery of the dose to the respiratory mucosa of the nasal cavity). The intranasal powder formulation was also administered via the right nostril using a 5 mm oral/nasal tracheal tube Portex® Blueline 100/111/050, (Smiths Medical, Ashford, UK) and one-way bellows. The amount of powder administered to each animal, and thus the nominal dose of PTH 1-34, was determined by weighing the devices before and after the nasal administrations. The subcutaneous and intravenous bolus injections of PTH 1-34 were administered into the flank and a jugular vein, respectively. […]

[1] = female, Mule crossbred, 20 ug, four-way crossover, intravenous bolus (jugular vein), solution without Solutol HS15, 20 μg, plasma ELISA, mean ± SE, n = 4
[2] = female, Mule crossbred, inhaled or intranasal, 200 ug, four-way crossover, intranasal liquid with 7.5% w/v Solutol HS15, 200 μg, single nostril, plasma ELISA, mean ± SE, n = 4
[3] = female, Mule crossbred, inhaled or intranasal, 200 ug, four-way crossover, intranasal liquid with 7.5% w/v Solutol HS15, 200 μg, single nostril, plasma ELISA, mean ± SE, n = 4, not dose-corrected
[4] = female, Mule crossbred, inhaled or intranasal, four-way crossover, intranasal dry powder (1% PTH 1-34, 39% gellan gum, 40% Solutol HS15, 20% trehalose), nominal 200 μg (estimated 130 ± 15 μg), plasma ELISA, mean ± SE, n = 4
[5] = female, Mule crossbred, sc, 20 ug, four-way crossover, subcutaneous injection into flank, solution without Solutol HS15, 20 μg, plasma ELISA, mean ± SE, n = 3
[6] = four-way crossover, intranasal dry powder with Solutol HS15 and gellan gum, nominal 200 μg (estimated 130 ± 15 μg), plasma ELISA, n = 4
[7] = four-way crossover, intranasal liquid with 7.5% w/v Solutol HS15, 200 μg, single nostril, plasma ELISA, n = 4
[8] = four-way crossover, intravenous bolus (jugular vein), solution without Solutol HS15, 20 μg, plasma ELISA, n = 4
[9] = four-way crossover, subcutaneous injection into flank, solution without Solutol HS15, 20 μg, plasma ELISA, n = 3

CC[C@H](C)[C@H](NC(=O)[C@H](CCC(=O)O)NC(=O)[C@H](CO)NC(=O)[C@@H](NC(=O)[C@@H](N)CO)C(C)C)C(=O)N[C@@H](CCC(N)=O)C(=O)N[C@@H](CC(C)C)C(=O)N[C@@H](CCSC)C(=O)N[C@@H](Cc1cnc[nH]1)C(=O)N[C@@H](CC(N)=O)C(=O)N[C@@H](CC(C)C)C(=O)NCC(=O)N[C@@H](CCCCN)C(=O)N[C@@H](Cc1cnc[nH]1)C(=O)N[C@@H](CC(C)C)C(=O)N[C@@H](CC(N)=O)C(=O)N[C@@H](CO)C(=O)N[C@@H](CCSC)C(=O)N[C@@H](CCC(=O)O)C(=O)N[C@@H](CCCN=C(N)N)C(=O)N[C@H](C(=O)N[C@@H](CCC(=O)O)C(=O)N[C@@H](Cc1c[nH]c2ccccc12)C(=O)N[C@@H](CC(C)C)C(=O)N[C@@H](CCCN=C(N)N)C(=O)N[C@@H](CCCCN)C(=O)N[C@@H](CCCCN)C(=O)N[C@@H](CC(C)C)C(=O)N[C@@H](CCC(N)=O)C(=O)N[C@@H](CC(=O)O)C(=O)N[C@H](C(=O)N[C@@H](Cc1cnc[nH]1)C(=O)N[C@@H](CC(N)=O)C(=O)N[C@@H](Cc1ccccc1)C(=O)O)C(C)C)C(C)C [PTH 1-34, PTH 1-34 acetate]
AUC(0-inf) [1]: 0.18 ng·h/mL | AUC(0-t) [1]: 0.178 ng·h/mL | Tmax [1]: 2 min | half-life [1]: 75 ± 18.1 min | Cmax (female, Mule crossbred, 20 ug, four-way crossover, intravenous bolus (jugular vein), solution without Solutol HS15, 20 μg, plasma ELISA, observed, mean ± SE, n = 4): 1.14 ± 0.198 ng/mL | Cmax [2]: 0.047 ± 0.021 ng/mL | Tmax [2]: 10 min | AUC(0-inf) [3]: 0.0204 ng·h/mL | AUC(0-t) [3]: 0.0182 ng·h/mL | half-life [2]: 109 ± 43.7 min | Cmax [4]: 0.008 ± 0.003 ng/mL | Tmax [4]: 11 min | half-life (female, Mule crossbred, inhaled or intranasal, four-way crossover, intranasal dry powder with Solutol HS15 and gellan gum, nominal 200 μg (estimated 130 ± 15 μg), plasma ELISA, mean ± SE, n = 4): 96 ± 29.8 min | C0 (female, Mule crossbred, plasma, 20 ug, intravenous bolus 20 μg, back-extrapolated from the first two concentration values, mean ± SE, read-out: C0 (initial plasma concentration, extrapolation to t = 0)): 2.18 ± 0.696 ng/mL | F rel (female, Mule crossbred, plasma, inhaled or intranasal, 200 ug, intranasal liquid with 7.5% w/v Solutol HS15, 200 μg, relative to subcutaneous injection, from AUCINF, dose-corrected, mean ± SE, n = 4, read-out: Frel): 1.4 ± 0.31% | bioavailability (female, Mule crossbred, plasma, inhaled or intranasal, 200 μg, intranasal dry powder with Solutol HS15 and gellan gum, from AUCINF, corrected with estimated dose, mean ± SE, n = 4): 0.7 ± 0.03% | F rel (female, Mule crossbred, plasma, inhaled or intranasal, 200 μg, intranasal dry powder with Solutol HS15 and gellan gum, relative to subcutaneous injection, from AUCINF, corrected with estimated dose, mean ± SE, n = 4, read-out: Frel): 1 ± 0.12% | bioavailability (female, Mule crossbred, plasma, inhaled or intranasal, 200 ug, intranasal liquid with 7.5% w/v Solutol HS15, 200 μg, from AUCINF, dose-corrected, mean ± SE, n = 4): 1.1 ± 0.26% | F rel (female, Mule crossbred, plasma, iv, 20 ug, intravenous bolus 20 μg, relative to subcutaneous injection, calculated for n = 3, read-out: Frel, n = 3): 140% | F rel (female, Mule crossbred, plasma, iv, 20 ug, intravenous bolus 20 μg, relative to subcutaneous injection, from AUCINF, mean ± SE, n = 4 (average subcutaneous AUCINF used for Sheep 1), read-out: Frel): 156 ± 24% | bioavailability (female, Mule crossbred, plasma, sc, 20 ug, subcutaneous injection into flank, 20 μg, from AUCINF, mean ± SE, n = 3): 77 ± 13.7% | AUC(0-inf) [5]: 0.124 ng·h/mL | AUC(0-t) [5]: 0.12 ng·h/mL | Cmax [5]: 0.121 ± 0.047 ng/mL | Tmax [5]: 12 min | half-life [5]: 54 ± 8.7 min | Tmax (median) [6]: 8 min | t1/2 (median) [6]: 71 min | Tmax (median) [7]: 10 min | t1/2 (median) [7]: 77 min | Tmax (mean) (four-way crossover, intravenous bolus (jugular vein), solution without Solutol HS15, 20 μg, plasma ELISA, mean ± SE, n = 4): 2 min | Tmax (median) [8]: 2 min | t1/2 (median) [8]: 78 min | Tmax (median) [9]: 10 min | t1/2 (median) [9]: 47 min | Frel (intranasal liquid with 7.5% w/v Solutol HS15, 200 μg, relative to subcutaneous injection, from AUCINF, dose-corrected, mean ± SE, n = 4): 1.4 ± 0.3% | time by which concentrations had returned to near baseline values (intranasal liquid with Solutol HS15, 200 μg, post-dose): ≤ 30 min | time of return to near baseline (intravenous bolus 20 μg): 30 to 45 min | Fab range (subcutaneous injection 20 μg, relative to intravenous, range): 55–108%
